Test results: patent US9663473B2 (Actelion Pharmaceuticals Ltd, priority 2013, dated 2017)
pEC50: −log10 of the molar value. Where a name gives a salt, the structure may show the parent alone.

These molecules were tested against T1, recombinant human ALX receptor (Homo sapiens, UniProt P25090) (assay: Intracellular calcium measurements (FLIPR), ALX receptor agonistic activity). Details: HEK293-hALXR-Gα16 cells, Fluo-4 calcium signal, normalized to WKYMVm 10 nM.
T1 construct: expressed in transfected cells; host or cells: HEK293 (HEK293-hALXR-Gα16)
T1 sequence (P25090 1-351): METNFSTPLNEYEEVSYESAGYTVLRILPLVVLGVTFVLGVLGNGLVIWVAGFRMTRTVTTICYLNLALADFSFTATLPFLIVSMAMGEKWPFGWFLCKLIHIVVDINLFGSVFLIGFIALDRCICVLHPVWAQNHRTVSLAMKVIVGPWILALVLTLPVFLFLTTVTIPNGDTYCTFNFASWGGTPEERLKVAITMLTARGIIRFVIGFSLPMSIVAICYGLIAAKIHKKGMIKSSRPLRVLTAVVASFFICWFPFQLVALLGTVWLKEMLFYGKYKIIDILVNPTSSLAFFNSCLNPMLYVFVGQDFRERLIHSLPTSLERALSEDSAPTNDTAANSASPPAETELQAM
Format: cell-based
Summary of the method: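 Agonist-induced calcium flux was read by FLIPR (488/540 nm) as baseline-subtracted peak emission, expressed relative to WKYMVm at 10 nM final. Cells used: HEK293-hALXR-Gα16, dye-loaded 60 min at 37° C. with 1 μM Fluo-4 AM before compound dose-response addition.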
`COc1ccc(CC(NC(=O)Nc2ncc(C)s2)c2nc3ccccc3[nH]2)cc1` (stereo not drawn) [Example 402, 1-(1-(1H-Benzo[d]imidazol-2-yl)-2-(4-methoxyphenyl)ethyl)-3-(5-methylthiazol-2-yl)urea] showed a pEC50 of 6.11. `O=C(N[C@H](Cc1ccc(Br)cc1)c1nc2ccccc2[nH]1)N[C@H]1CC[C@H](O)CC1` [Example 35, 1-((R)-1-(1H-Benzo[d]imidazol-2-yl)-2-(4-bromophenyl)ethyl)-3-(trans-4-hydroxycyclohexyl)urea] gave a pEC50 of 8.27. `COc1ccc(CC(NC(=O)NCc2nc3ccccc3s2)c2nc3ccccc3[nH]2)cc1` (stereo not drawn) [Example 38, 1-(1-(1H-Benzo[d]imidazol-2-yl)-2-(4-methoxyphenyl)ethyl)-3-(benzo[d]thiazol-2-ylmethyl)urea] showed a pEC50 of 6.70. `COc1ccc(C[C@@H](NC(=O)NC2CCc3ccccc3C2)c2nc3ccccc3[nH]2)cc1` (stereo partly drawn) [Example 15, 1-((R)-1-(1H-Benzo[d]imidazol-2-yl)-2-(4-methoxyphenyl)ethyl)-3-(1,2,3,4-tetrahydronaphthalen-2-yl)urea hydrochloride] showed a pEC50 of 7.23. Work on `O=C(NC(Cc1ccc(C(F)(F)F)c(F)c1)c1nc2ccccc2[nH]1)N[C@H]1CC[C@H](O)CC1` (relative stereo) [Example 237, 1-(1-(1H-Benzo[d]imidazol-2-yl)-2-(3-fluoro-4-(trifluoromethyl)phenyl)ethyl)-3-(trans-4-hydroxycyclohexyl)urea] yielded a pEC50 of 7.44. `COc1ccc(C[C@@H](NC(=O)NCC2CCN(C)CC2)c2nc3ccccc3[nH]2)cc1` [Example 147, (R)-1-(1-(1H-Benzo[d]imidazol-2-yl)-2-(4-methoxyphenyl)ethyl)-3-((1-methylpiperidin-4-yl)methyl)urea] gave a pEC50 of 6.31. With `COc1ccc(C[C@@H](NC(=O)NCc2ncccc2C)c2nc3ccccc3[nH]2)cc1` [Example 287, (R)-1-(1-(1H-Benzo[d]imidazol-2-yl)-2-(4-methoxyphenyl)ethyl)-3-((3-methylpyridin-2-yl)methyl)urea] the pEC50 was 7.04. `COc1ccc(C[C@@H](NC(=O)N[C@H]2CCCC[C@@H]2O)c2nc3ccccc3[nH]2)cc1` (relative stereo) [Example 24, 1-((R)-1-(1H-Benzo[d]imidazol-2-yl)-2-(4-methoxyphenyl)ethyl)-3-((1 S*,2S*)-2-hydroxycyclohexyl)urea] showed a pEC50 of 7.62. `COc1ccc(CC(NC(=O)Nc2ccnn2-c2ccc(OC(F)(F)F)cc2)c2nc3ccccc3[nH]2)cc1` (stereo not drawn) [Example 413, 1-(1-(1H-benzo[d]imidazol-2-yl)-2-(4-methoxyphenyl)ethyl)-3-(1-(4-(trifluoromethoxy)phenyl)-1H-pyrazol-5-yl)urea] was tested, and the pEC50 was 6.82. `COc1ccc(C[C@@H](NC(=O)NC2CCCC(C(=O)O)C2)c2nc3ccccc3[nH]2)cc1` (stereo partly drawn) [Example 229, Lithium 3-(3-((R)-1-(1H-benzo[d]imidazol-2-yl)-2-(4-methoxyphenyl)ethyl)ureido)cyclohexanecarboxylate] showed a pEC50 of 7.03. Molecule `COc1ccc(C[C@@H](NC(=O)NC2CC(C)(C)NC(C)(C)C2)c2nc3ccccc3[nH]2)cc1` [Example 87, (R)-1-(1-(1H-Benzo[d]imidazol-2-yl)-2-(4-methoxyphenyl)ethyl)-3-(2,2,6,6-tetramethylpiperidin-4-yl)urea] has a pEC50 of 7.85. Work on `COc1ccc(C[C@@H](NC(=O)NCCc2ccccc2)c2nc3ccccc3[nH]2)cc1` [Example 67, (R)-1-(1-(1H-Benzo[d]imidazol-2-yl)-2-(4-methoxyphenyl)ethyl)-3-phenethylurea] yielded a pEC50 of 6.38. For `O=C(NC(Cc1ccc(C(F)(F)F)cc1F)c1nc2ccccc2[nH]1)N[C@H]1CC[C@H](O)CC1` (single isomer, unassigned; ent-1) [Example 399, 1-(1-(1H-Benzo[d]imidazol-2-yl)-2-(2-fluoro-4-(trifluoromethyl)phenyl)ethyl)-3-(trans-4-hydroxycyclohexyl)urea (ent-1)], the pEC50 was 5.77. Work on `COc1cc(F)c(CC(NC(=O)N[C@H]2CC[C@](C)(O)CC2)c2nc3ccccc3[nH]2)c(F)c1` (mixture of isomers) [Example 236, 1-(1-(1H-Benzo[d]imidazol-2-yl)-2-(2,6-difluoro-4-methoxyphenyl)ethyl)-3-(trans-4-hydroxy-4-methylcyclohexyl)urea] yielded a pEC50 of 8.46. Work on `O=C(NC(Cc1ccc(C(F)(F)F)cc1F)c1nc2cc(F)ccc2[nH]1)NC12CCC(O)(CC1)CC2` (single isomer, unassigned; ent-1) [Example 361, 1-(1-(5-Fluoro-1H-benzo[d]imidazol-2-yl)-2-(2-fluoro-4-(trifluoromethyl)phenyl)ethyl)-3-(4-hydroxybicyclo[2.2.2]octan-1-yl)urea (ent-1)] yielded a pEC50 of 8.41. For `COc1ccc(CC(NC(=O)NCc2ccccc2Cl)c2nc3ccccc3[nH]2)cc1` (stereo not drawn) [Example 45, 1-(1-(1H-Benzo[d]imidazol-2-yl)-2-(4-methoxyphenyl)ethyl)-3-(2-chlorobenzyl)urea], the pEC50 was 6.12. `COc1ccc(CC(NC(=O)N[C@H]2CC[C@H](O)CC2)c2nc3ccc(F)cc3[nH]2)cc1F` (single isomer, unassigned; ent-2) [Example 371, 1-(1-(6-Fluoro-1H-benzo[d]imidazol-2-yl)-2-(3-fluoro-4-methoxyphenyl)ethyl)-3-(trans-4-hydroxycyclohexyl)urea (ent-2)] showed a pEC50 of 6.60. Work on `COc1ccc(C[C@@H](NC(=O)N[C@@H]2CCC[C@H]2O)c2nc3ccccc3[nH]2)cc1` [Example 113, 1-((R)-1-(1H-Benzo[d]imidazol-2-yl)-2-(4-methoxyphenyl)ethyl)-3-((1R,2R)-2-hydroxycyclopentyl)urea] yielded a pEC50 of 7.70. `COc1ccc(CCNC(=O)NC(Cc2ccc(OC)cc2)c2nc3ccccc3[nH]2)cc1` (stereo not drawn) [Example 53, 1-(1-(1H-Benzo[d]imidazol-2-yl)-2-(4-methoxyphenyl)ethyl)-3-(4-methoxyphenethyl)urea] was tested, and the pEC50 was 6.27. Molecule `COc1ccc(CC(NC(=O)NC2CCC(CCO)CC2)c2nc3ccccc3[nH]2)cc1` (stereo not drawn) [Example 107, 1-(1-(1H-Benzo[d]imidazol-2-yl)-2-(4-methoxyphenyl)ethyl)-3-(4-(2-hydroxyethyl)cyclohexyl)urea] has a pEC50 of 8.22. Molecule `COc1ccc(C[C@@H](NC(=O)N[C@H]2CC[C@H](O)CC2)c2nc3c(F)cccc3[nH]2)cc1` [Example 124, 1-((R)-1-(4-Fluoro-1H-benzo[d]imidazol-2-yl)-2-(4-methoxyphenyl)ethyl)-3-(trans-4-hydroxycyclohexyl)urea] has a pEC50 of 6.76. In the case of `O=C(N[C@H](Cc1ccc(C(F)(F)F)cc1)c1nc2cc(F)ccc2[nH]1)NC12CCC(O)(CC1)CC2` [Example 267, (R)-1-(1-(5-Fluoro-1H-benzo[d]imidazol-2-yl)-2-(4-(trifluoromethyl)phenyl)ethyl)-3-(4-hydroxybicyclo[2.2.2]octan-1-yl)urea], the pEC50 was 7.85. `COc1ccc(C[C@@H](NC(=O)N[C@@H]2CC[C@H](O)C2)c2nc3ccccc3[nH]2)cc1` (relative stereo) [Example 171, 1-((R)-1-(1H-Benzo[d]imidazol-2-yl)-2-(4-methoxyphenyl)ethyl)-3-((1R*,3S*)-3-hydroxycyclopentyl)urea] was tested, and the pEC50 was 7.42. With `CCOc1ccc(CC(NC(=O)N[C@H]2CC[C@H](O)CC2)c2nc3ccccc3[nH]2)cc1` (relative stereo) [Example 77, 1-(1-(1H-Benzo[d]imidazol-2-yl)-2-(4-ethoxyphenyl)ethyl)-3-(trans-4-hydroxycyclohexyl)urea] the pEC50 was 6.69.
